Results from ChEMBL document CHEMBL1157981, “Goniotriocin and (2,4-cis- and -trans)-xylomaticinones, bioactive annonaceous acetogenins from Goniothalamus giganteus” (J Nat Prod, 1999).
Values after ≈ are worked out from the molar mass of the structure shown.

Columns and labels:
Aedes aegypti = assay: Pesticidal activity against yellow fever mosquito larvae by microtiter plate assay; assay type: functional
[1] = Toxicity in brine shrimp; assay type: organism-based; conditions: artemia, in vivo
A549 = assay: Cytotoxicity against human A549 cells by MTT assay; assay type: functional; conditions: read-out: ED50 (the source's name)
MCF7 = assay: Cytotoxicity against human MCF7 cells by MTT assay; assay type: functional; conditions: read-out: ED50 (the source's name)
HT-29 = assay: Cytotoxicity against human HT-29 cells by MTT assay; assay type: functional; conditions: read-out: ED50 (the source's name)
A498 = assay: Cytotoxicity against human A-498 cells by MTT assay; assay type: functional; conditions: read-out: ED50 (the source's name)
PC-3 = assay: Cytotoxicity against human PC-3 cells by MTT assay; assay type: functional; conditions: read-out: ED50 (the source's name)
MIA PaCa-2 = assay: Cytotoxicity against human PaCa2 cells by MTT assay; assay type: functional; conditions: read-out: ED50 (the source's name)

Row | SMILES | LC50 (Aedes aegypti) [µg/mL] | LC50 [1] [µg/mL] | EC50 (A549) [µg/mL] | EC50 (MCF7) [µg/mL] | EC50 (HT-29) [µg/mL] | EC50 (A498) [µg/mL] | EC50 (PC-3) [µg/mL] | EC50 (MIA PaCa-2) [µg/mL]
1 | C=C(C)[C@H]1Cc2c(ccc3c2O[C@@H]2COc4cc(OC)c(OC)cc4[C@@H]2C3=O)O1 [ROTENONE] | 0.3 (≈ 0.761 µM) | – | – | – | – | – | – | –
2 | CCCCCCCCCCCCC(=O)C[C@@H]1C[C@@H](O)[C@@H](CC[C@H](O)[C@@H]2CC[C@@H](CCCCCC(O)CC3=CC(C)OC3=O)O2)O1 (stereo not given in full) [GONIOTRICIN] | 3.6 (≈ 5.65 µM) | 2.7 (≈ 4.24 µM) | 0.033 (≈ 0.0518 µM) | 0.0033 (≈ 0.00518 µM) | 0.0012 (≈ 0.00188 µM) | 0.0011 (≈ 0.00173 µM) | 0.26 (≈ 0.408 µM) | 1.4 (≈ 2.2 µM)
3 | COc1cccc2c1C(=O)c1c(O)c3c(c(O)c1C2=O)C[C@@](O)(C(=O)CO)C[C@@H]3O[C@H]1C[C@H](N)[C@H](O)[C@H](C)O1 [DOXORUBICIN] | – | – | 0.017 (≈ 0.0313 µM) | 0.21 (≈ 0.386 µM) | 0.031 (≈ 0.057 µM) | 0.019 (≈ 0.035 µM) | 0.062 (≈ 0.114 µM) | 0.023 (≈ 0.0423 µM)
